Organism: Rattus norvegicus
Assay: Open TG-GATES - Regimen: Daily Repeat
Type: toxicity, organism-based, Sprague-Dawley
Parameters: regimen Daily Repeat, gender Male, age 6 weeks
Settings: in vivo, po, 100 mg/kg, route gavage, dose level Middle; for APTT / Bas / Eos / Fbg / Hb / Ht / Lym / MCH / MCHC / MCV / Mono / Neu / PT / Plat / RBC / Ret / WBC: tissue Blood; for KIDNEY_L / KIDNEY_R / KIDNEY_TOTAL: tissue Kidney; for LIVER: tissue Liver; for A/G / ALP / ALT / AST / BUN / CRE / Ca / Cl / DBIL / GLC / IP / K / LDH / Na / PL / RALB / TBIL / TC / TG / TP / gamma-GTP: tissue Plasma

Structure (SMILES): Clc1c(Cl)c(Cl)c(Cl)c(Cl)c1Cl [PERCHLOROBENZENE]
- TERMINAL_BW (72 h, time 3 day): 223.3 g
- APTT (72 h, time 3 day): 15.9 s
- Bas (72 h, time 3 day): 0%
- Eos (72 h, time 3 day): 1.2%
- Fbg (72 h, time 3 day): 221.4 mg/dL
- Hb (72 h, time 3 day): 14.1 g/dL
- Ht (72 h, time 3 day): 42.1%
- Lym (72 h, time 3 day): 73.2%
- MCH (72 h, time 3 day): 21.7 pg
- MCHC (72 h, time 3 day): 33.5%
- MCV (72 h, time 3 day): 64.8 fL
- Mono (72 h, time 3 day): 7.4%
- Neu (72 h, time 3 day): 18.2%
- PT (72 h, time 3 day): 11.2 s
- Plat (72 h, time 3 day): 104.2 x10_4/uL
- RBC (72 h, time 3 day): 650.6 x10_4/ul
- Ret (72 h, time 3 day): 7.5%
- WBC (72 h, time 3 day): 113.8 x10_2/uL
- KIDNEY_L (72 h, time 3 day): 1 g
- KIDNEY_R (72 h, time 3 day): 1 g
- KIDNEY_TOTAL (72 h, time 3 day): 2 g
- LIVER (72 h, time 3 day): 13.1 g
- A/G (72 h, time 3 day): 1.8
- ALP (72 h, time 3 day): 823 IU/L
- ALT (72 h, time 3 day): 43.4 IU/L
- AST (72 h, time 3 day): 65.8 IU/L
- BUN (72 h, time 3 day): 16 mg/dL
- CRE (72 h, time 3 day): 0.5 mg/dL
- Ca (72 h, time 3 day): 10.6 mg/dL
- Cl (72 h, time 3 day): 106.2 meq/L
- DBIL (72 h, time 3 day): 0.006 mg/dL
- GLC (72 h, time 3 day): 194.8 mg/dL
- IP (72 h, time 3 day): 8.7 mg/dL
- K (72 h, time 3 day): 5.2 meq/L
- LDH (72 h, time 3 day): 121.4 IU/L
- Na (72 h, time 3 day): 139 meq/L
- PL (72 h, time 3 day): 168 mg/dL
- RALB (72 h, time 3 day): 3.7 g/dL
- TBIL (72 h, time 3 day): 0.4 mg/dL
- TC (72 h, time 3 day): 91.8 mg/dL
- TG (72 h, time 3 day): 162.4 mg/dL
- TP (72 h, time 3 day): 5.8 g/dL
- gamma-GTP (72 h, time 3 day): 1.6 IU/L
- TERMINAL_BW ([…], time 7 day): 265.6 g
- TERMINAL_BW ([…], time 14 day): 308.5 g
- TERMINAL_BW ([…], time 28 day): 338.7 g
- APTT ([…], time 7 day): 17.2 s
- Bas ([…], time 7 day): 0%
- Eos ([…], time 7 day): 1.2%
- Fbg ([…], time 7 day): 238.8 mg/dL
- Hb ([…], time 7 day): 14.5 g/dL
- Ht ([…], time 7 day): 43.3%
- Lym ([…], time 7 day): 64.2%
- MCH ([…], time 7 day): 21.3 pg
- MCHC ([…], time 7 day): 33.4%
- MCV ([…], time 7 day): 63.7 fL
- Mono ([…], time 7 day): 14.4%
- Neu ([…], time 7 day): 20.4%
- PT ([…], time 7 day): 11.7 s
- Plat ([…], time 7 day): 115.6 x10_4/uL
- RBC ([…], time 7 day): 680.8 x10_4/ul
- Ret ([…], time 7 day): 5.7%
- WBC ([…], time 7 day): 104 x10_2/uL
- APTT ([…], time 14 day): 19.7 s
- Bas ([…], time 14 day): 0%
- Eos ([…], time 14 day): 1%
- Fbg ([…], time 14 day): 263.2 mg/dL
- Hb ([…], time 14 day): 14.5 g/dL
- Ht ([…], time 14 day): 43.3%
- Lym ([…], time 14 day): 77.6%
- MCH ([…], time 14 day): 20.9 pg
- MCHC ([…], time 14 day): 33.6%
- MCV ([…], time 14 day): 62.3 fL
- Mono ([…], time 14 day): 8%
- Neu ([…], time 14 day): 13.6%
- PT ([…], time 14 day): 12.2 s
- Plat ([…], time 14 day): 117.2 x10_4/uL
- RBC ([…], time 14 day): 695 x10_4/ul
- Ret ([…], time 14 day): 4.6%
- WBC ([…], time 14 day): 156.2 x10_2/uL
- APTT ([…], time 28 day): 23.8 s
- Bas ([…], time 28 day): 0%
- Eos ([…], time 28 day): 2.2%
- Fbg ([…], time 28 day): 320.6 mg/dL
- Hb ([…], time 28 day): 15.3 g/dL
- Ht ([…], time 28 day): 46%
- Lym ([…], time 28 day): 65%
- MCH ([…], time 28 day): 19.7 pg
- MCHC ([…], time 28 day): 33.2%
- MCV ([…], time 28 day): 59.4 fL
- Mono ([…], time 28 day): 15.4%
- Neu ([…], time 28 day): 17.8%
- PT ([…], time 28 day): 15.8 s
- Plat ([…], time 28 day): 100.2 x10_4/uL
- RBC ([…], time 28 day): 774.8 x10_4/ul
- Ret ([…], time 28 day): 3%
- WBC ([…], time 28 day): 182.8 x10_2/uL
- KIDNEY_L ([…], time 7 day): 1.2 g
- KIDNEY_R ([…], time 7 day): 1.2 g
- KIDNEY_TOTAL ([…], time 7 day): 2.3 g
- KIDNEY_L ([…], time 14 day): 1.3 g
- KIDNEY_R ([…], time 14 day): 1.3 g
- KIDNEY_TOTAL ([…], time 14 day): 2.5 g
- KIDNEY_L ([…], time 28 day): 1.5 g
- KIDNEY_R ([…], time 28 day): 1.5 g
- KIDNEY_TOTAL ([…], time 28 day): 2.9 g
- LIVER ([…], time 7 day): 17.2 g
- LIVER ([…], time 14 day): 21.6 g
- LIVER ([…], time 28 day): 29.5 g
- A/G ([…], time 7 day): 1.9
- ALP ([…], time 7 day): 631.4 IU/L
- ALT ([…], time 7 day): 33 IU/L
- AST ([…], time 7 day): 59.2 IU/L
- BUN ([…], time 7 day): 17.2 mg/dL
- CRE ([…], time 7 day): 0.7 mg/dL
- Ca ([…], time 7 day): 10.7 mg/dL
- Cl ([…], time 7 day): 104.2 meq/L
- DBIL ([…], time 7 day): 0.01 mg/dL
- GLC ([…], time 7 day): 179.8 mg/dL
- IP ([…], time 7 day): 7.9 mg/dL
- K ([…], time 7 day): 4.9 meq/L
- LDH ([…], time 7 day): 127.8 IU/L
- Na ([…], time 7 day): 137.8 meq/L
- PL ([…], time 7 day): 191.6 mg/dL
- RALB ([…], time 7 day): 3.9 g/dL
- TBIL ([…], time 7 day): 0.5 mg/dL
- TC ([…], time 7 day): 112.4 mg/dL
- TG ([…], time 7 day): 151.6 mg/dL
- TP ([…], time 7 day): 6.1 g/dL
- gamma-GTP ([…], time 7 day): 1.8 IU/L
- A/G ([…], time 14 day): 2
- ALP ([…], time 14 day): 470.8 IU/L
- ALT ([…], time 14 day): 30.2 IU/L
- AST ([…], time 14 day): 54.2 IU/L
- BUN ([…], time 14 day): 17 mg/dL
- CRE ([…], time 14 day): 0.6 mg/dL
- Ca ([…], time 14 day): 10.4 mg/dL
- Cl ([…], time 14 day): 106.6 meq/L
- DBIL ([…], time 14 day): 0.014 mg/dL
- GLC ([…], time 14 day): 171.2 mg/dL
- IP ([…], time 14 day): 7.8 mg/dL
- K ([…], time 14 day): 4.9 meq/L
- LDH ([…], time 14 day): 102.2 IU/L
- Na ([…], time 14 day): 140.2 meq/L
- PL ([…], time 14 day): 192.6 mg/dL
- RALB ([…], time 14 day): 4.4 g/dL
- TBIL ([…], time 14 day): 0.5 mg/dL
- TC ([…], time 14 day): 115.2 mg/dL
- TG ([…], time 14 day): 145.2 mg/dL
- TP ([…], time 14 day): 6.6 g/dL
- gamma-GTP ([…], time 14 day): 2.8 IU/L
- A/G ([…], time 28 day): 1.6
- ALP ([…], time 28 day): 316.6 IU/L
- ALT ([…], time 28 day): 50.4 IU/L
- AST ([…], time 28 day): 48.8 IU/L
- BUN ([…], time 28 day): 21.8 mg/dL
- CRE ([…], time 28 day): 0.7 mg/dL
- Ca ([…], time 28 day): 11.2 mg/dL
- Cl ([…], time 28 day): 105.6 meq/L
- DBIL ([…], time 28 day): 0.014 mg/dL
- GLC ([…], time 28 day): 159.6 mg/dL
- IP ([…], time 28 day): 9.2 mg/dL
- K ([…], time 28 day): 5.3 meq/L
- LDH ([…], time 28 day): 157.4 IU/L
- Na ([…], time 28 day): 143.4 meq/L
- PL ([…], time 28 day): 193 mg/dL
- RALB ([…], time 28 day): 4.6 g/dL
- TBIL ([…], time 28 day): 0.3 mg/dL
- TC ([…], time 28 day): 120.2 mg/dL
- TG ([…], time 28 day): 116.2 mg/dL
- TP ([…], time 28 day): 7.6 g/dL
- gamma-GTP ([…], time 28 day): 11.4 IU/L

From ChEMBL document CHEMBL3885861, “Open TG-GATES”
